From patent publication US8575306B2, “Target and method for inhibition of bacterial RNA polymerase” (Rutgers, The State University of New Jersey, priority 2002, dated 2013)
Entries after “also recorded” stand apart in the source; their conditions may differ. Where a SMILES comes first, the peptide text is derived from it.

Columns and labels:
RNAP [1] = molecular target: RNAP (Escherichia coli, UniProt P0A8T7); details: crude cell extracts; Delgado et al. (2001); cited from earlier work
RNAP [2] = test: Cross-resistance with rifampicin; details: unpublished data
RNAP holoenzyme [3] = molecular target: T1, RNAP holoenzyme (Escherichia coli, UniProt P0A8T7); test: Electrophoretic mobility shift assays (open-complex formation, lacUV5 promoter); type: biochemical; details: MccJ25 at 1, 10, or 100 μM
T1 construct: RNAP holoenzyme was prepared from, strain XE54/pREII-NHα; made in house; host or cells: E. coli strain XE54/pREII-NHα
Description: Following 15 min at 37° C., 0.5 μl 1 mg/ml heparin was added (to disrupt non-specific complexes (Cech and McClure (1980) Biochem. 19, 2440-2447)), and, following a further 2 min at 37° C., reaction mixtures were applied to 5% polyacrylamide slab gels (30:1 acrylamide/bisacrylamide; 6×9×0.1 cm) and electrophoresed in 90 mM Tris-borate (pH 8.0) and 0.2 mM EDTA (20 V/cm; 30 mm at 37° C.) and analyzed using an x/y fluorescence scanner (Storm 860; Molecular Dynamics, Inc.).

[4] = molecular target: T2, [Ile931]β′-RNAP holoenzyme (Escherichia coli, UniProt P0A8T7, T931I); test: Transcription assays with MccJ25-resistant RNAP derivative; type: biochemical
T2 construct: hexahistidine (C); made in house; host or cells: E. coli strain 397c (rpoC ts397) transformed with a pRL663 derivative
Description: (§1) MccJ25 interferes with a process common to both abortive initiation and elongation—i.e., NTP uptake, phosphodiester-bond formation, or translocation.
RNAP holoenzyme was prepared from, strain XE54/pREII-NHα (thi pREII-NHα; Niu et al., (1996) Cell 87, 1123-1134) using metal-ion affinity chromatography and ion-exchange chromatography (Id.). (Ile931]β′-RNAP holoenzyme was prepared from strain 397c [rpoC^ts397 argG thi lac λcI857h80St68dlac^+); Christie et al., (1996) J. Bacteriol. 178, 6991-6993) transformed with a pRL663 derivative encoding [Ile931]β′-RNAP (constructed using site-directed mutagenesis (QuikChange Site-Directed Mutagenesis Kit; Stratagene, Inc).) using identical procedures. Yields typically were 6 mg. Purities typically were >95%.
Following 15 min at 37° C., 0.5 μl 1 mg/ml heparin, was added, and, following a further 2 min at 37° C., RNA synthesis was initiated by addition of 2 μl 5 mM ApA and 125 μM (or 250 jiM, 500 μM, and 1 mM) each of [α-^32P]UTP (0.6 Bq/fmol), ATP, CTP, GTP. […] Products were heated 10 min at 90° C., resolved by urea-PAGE (Sambrook and Russell (2001). Molecular Cloning: A Laboratory Manual (Cold Spring Harbor, N.Y., Cold Spring Harbor Laboratory)), and quantified using an x/y storage-phosphor scanner (Storm 860; Molecular Dynamics, Inc.). […]

RNAP holoenzyme [5] = molecular target: T1, RNAP holoenzyme; test: Fluorescence-detected abortive initiation assays; type: biochemical; details: iterative tri- and tetranucleotide synthesis
Description: Following 15 min at 37° C. 0.5 μl mg/ml heparin was added, and, following a further 2 min at 37° C., 1 μl of 0.25-5 mM (y-AmNS)UTP (Molecular Probes, Inc.) was added, and reaction mixtures were transferred to sub-micro fluorometer cuvettes (Starna Cells, Inc.). Following 2 min at 37° C., RNA synthesis was initiated by addition of 2.5 μl 10 mM ApA, and fluorescence emission intensity was monitored 5 min at 37° C. [excitation wavelength=360 nm and emission wavelength=500 nm; excitation and emission slit widths=4 nm; QuantaMaster QM1 spectrofluororaeter (PTI, Inc).]. The quantity of UMP incorporated into RINA was determined from the quantity of (γ−AmNS)UTP consumed, which, in turn, was calculated as follows (Schlageck et al. 1979): (γ−AmNS)UTPconsumed=[(γ−AmNS)UTP0](Ft−F0)/(12.4×F0) where (γ−AmNS)UTP0 is the quantity of (γ−AmNS)UTP at time 0, F0 is the fluorescence emission intensity at time 0, and Ft is the fluorescence emission intensity at time t. Data were fit to full-competitive, partial-competitive, full-noncompetitive, partial-noncompetitive, full-uncompetitive, partial-uncompetitive, full-mixed, and partial-mixed models of inhibition as in the preceding section.

RNAP holoenzyme [6] = molecular target: T1, RNAP holoenzyme; test: Transcription assays (abortive initiation and elongation, lacUV5 promoter); type: biochemical
Description: as §1
Following 15 min at 37° C., 0.5 μl 1 mg/ml heparin, was added, and, following a further 2 min at 37° C., RNA synthesis was initiated by addition of 2 μl 5 mM ApA and 125 μM (or 250 jiM, 500 μM, and 1 mM) each of [α-^32P]UTP (0.6 Bq/fmol), ATP, CTP, GTP. Following 5 min at 37° C., reactions were terminated by addition of 10 μl 80% formamide, 10 mM EDTA, 0.04% bromophenol blue, and 0.04% xylene cyanol. Products were heated 10 min at 90° C., resolved by urea-PAGE (Sambrook and Russell (2001). Molecular Cloning: A Laboratory Manual (Cold Spring Harbor, N.Y., Cold Spring Harbor Laboratory)), and quantified using an x/y storage-phosphor scanner (Storm 860; Molecular Dynamics, Inc.). Data were fit to full-competitive, partial-competitive, full-noncompetitive, partial-noncompetitive, full-uncompetitive, partial-uncompetitive, full-mixed, and partial-mixed models of inhibition using the Fit-To-Model feature of the SigmaPlot Enzyme Kinetics Module (SPSS, Inc.).

[7] = system: Gram-negative bacterial species, including E. coli; details: Salomon and Farias (1992); cited from earlier work
RNAP secondary channel = RNAP secondary channel (Escherichia coli, UniProt P0A8T7); test: Fluorescence-resonance-energy-transfer experiments with a fluorochrome-labelled MccJ25 derivative; type: binding; details: preliminary results
Description: The results of Yuzenkova et al., (2002) J. Biol. Chem. 277, 50867-50875, although limited, also indicate that inhibition involves a multi-residue determinant within the RNAP secondary channel (five sites for substitutions conferring MccJ25-resistance). […] The RNAP secondary channel is a 25 Å long, ˜10-15 Å wide, fully enclosed tunnel through which NTPs must pass to access the RNAP active-center and NTP binding site (Zhang et al., (1999) Cell 98, 811-824; Cramer et al., (2001) Science 292, 1863-1876; and Ebright (2000) J. Mol. Biol. 304, 687-689).

[8] = MccJ25 at 1, 10, or 100 μM, 5 min at 37° C.

CC[C@H](C)[C@H](NC(=O)CNC(=O)[C@@H](NC(=O)[C@H](Cc1ccccc1)NC(=O)[C@H](Cc1ccc(O)cc1)NC(=O)[C@@H]1CCC(=O)NCC(=O)NCC(=O)N[C@@H](C)C(=O)NCC(=O)N[C@@H](Cc2c[nH]cn2)C(=O)N[C@@H](C(C)C)C(=O)N2CCC[C@H]2C(=O)N1)C(C)C)C(=O)NCC(=O)N[C@H](C(=O)N1CCC[C@H]1C(=O)N[C@H](C(=O)N[C@@H](CO)C(=O)N[C@@H](Cc1ccccc1)C(=O)N[C@@H](Cc1ccc(O)cc1)C(=O)NCC(=O)O)[C@@H](C)CC)[C@@H](C)O [MccJ25] (HELM PEPTIDE1{G.G.A.G.H.V.P.E.Y.F.V.G.I.G.T.P.I.S.F.Y.G}$PEPTIDE1,PEPTIDE1,1:R1-8:R3$$$V2.0)
inhibition of RNAP-dependent transcription (RNAP [1]): inhibits | cross-resistance with rifampicin (RNAP [2]): do not exhibit cross-resistance | effect on formation of open complex (RNAP holoenzyme [3]): no effect; also recorded: does not inhibit | inhibition of transcription upon substitution of residue 931 of the RNAP β′ subunit (Thr931→Ile) [4]: overcome completely | mode of inhibition (RNAP holoenzyme [5]): partial-competitive | inhibition of formation of abortive products (7 nt and 8 nt RNA species) (RNAP holoenzyme [6]; [8]): inhibits | inhibition of formation of the full-length product (26 nt RNA species) (RNAP holoenzyme [6]; [8]): inhibits | NTP-concentration dependence of inhibition (RNAP holoenzyme [6]; NTP 12.5, 25, 50 and 100 μM): NTP-concentration-dependent | mode of inhibition (RNAP holoenzyme [6]; with respect to NTPs, 7-mer and 8-mer abortive products): partial competitive | bacteriocidal activity [7]: exhibits bacteriocidal activity | binding site on RNAP (RNAP secondary channel): binds within the RNAP secondary channel
